The record followed here is article PMC5013292, “A Putative Bacterial ABC Transporter Circumvents the Essentiality of Signal Peptidase” (mBio, 2016).

The test system of assay [1] is Δmcr cro/cI(Q16stop) Δ(SAUSA300_0351-SAUSA300_0352-SAUSA300_0353) (GNE0220). Kind of assay: MIC fold increase, GNE0220. Format: cell-based, S. aureus. The method, then:
(§1) MICs were determined according to the standard protocol from the Clinical and Laboratory Standards Institute ([23]). Briefly, S. aureus bacteria were harvested from regular MHA plates that had been cultured for ~20 h at 37°C. Serial dilutions of compound 103 were incubated with bacteria at approximately 10^6 CFU (CFU)/ml in MHB in round-bottom 96 well plates (Corning, Corning, NY) for 22 h at 37°C. MICs were determined by the lowest concentration of compound 103 showing absence of growth by visual inspection.
(§2) To generate mutations in SAUSA300_0351, _0352, and _0353 genes by homologous recombination, we transformed USA300 Δmcr using targeting constructs created in the vector pIMAY ([24]). To generate mutations in SAUSA300_0351, _0352, and _0353 genes in a cro/cI mutant background, we selected colonies from USA300 Δmcr cultured on plates containing fourfold the MIC of compound 103. Sequencing of PCR products of the cro/cI gene from resistant colonies yielded a clone with a Q16stop codon mutation in cro/cI (strain GNE0173). We further mutated SAUSA300_0351, _0352, and _0353 in this USA300 Δmcr cro/cI (Q16stop) clone to study the contributions of these three genes to cro/cI-mediated resistance.

Assay [2] concerns SpsB H69L mutant of USA300 Δmcr cro/cI(Q16stop) SAUSA300_0352(K44A). Kind of assay: MIC fold increase, SpsB H69L mutant. Format: cell-based, S. aureus. On the procedure: as §1
The subject of assay [3] is SpsB Y30N mutant of USA300 Δmcr cro/cI(Q16stop) SAUSA300_0352(K44A). The assay can be described thus: MIC fold increase, SpsB Y30N mutant. Format: cell-based, S. aureus. The method, then:
as §1

In assay [4] the test system is cro/cI(M1V)(pMK4) (GNE0107). The assay can be described thus: MIC fold increase, GNE0107. Format: cell-based, S. aureus. The method, then: as §1
Assay [5] relates to SpsB Y30D mutant of USA300 Δmcr cro/cI(Q16stop) SAUSA300_0352(K44A). Kind of assay: MIC fold increase, SpsB Y30D mutant. Format: cell-based, S. aureus. On the procedure: as §1
For assay [6], the system named is USA300 SAUSA300_0352(K44A) (strain GNE0174). The assay can be described thus: Frequency of spontaneous resistance, GNE0174. Format: cell-based, S. aureus. Conditions: K44A in SAUSA300_0352 in WT USA300 background; fourfold MIC; 37°C, 2 days; approximately 2 orders of magnitude reduced. On the procedure:
(§3) To determine the frequency of spontaneous resistance, suspensions containing approximately 5 × 10^9 CFU of S. aureus were cultured on MHA plates containing compound 103 at fourfold the MIC; serial dilutions were cultured in parallel on regular MHA to determine the actual number of CFU (input). The frequency of spontaneous resistance was defined as the number of viable colonies able to grow in the presence of compound 103 after culture at 37°C for 2 days (output) divided by input.
as §2

The test system of assay [7] is USA300 WT(pMK4) (GNE0163). Kind of assay: MIC fold increase, GNE0163. Format: cell-based, S. aureus. On the procedure: as §1
The test system of the next assay is S. aureus USA300. Kind of assay: Frequency of spontaneous resistance, USA300. Format: cell-based. The conditions noted are these: agar with compound 103 at fourfold its MIC; 37°C, 2 days; output/input CFU. On the procedure:
as §3

In assay [8] the test system is SpsB V49L mutant of USA300 Δmcr cro/cI(Q16stop) SAUSA300_0352(K44A). Kind of assay: MIC fold increase, SpsB V49L mutant. Format: cell-based, S. aureus. On the procedure:
as §1

Assay [9] deals with psarA-SAUSA300_0351_0352_0353 (GNE0162). The assay can be described thus: MIC fold increase, GNE0162. Format: cell-based, S. aureus. On the procedure:
as §1, §2

In assay [10] the test system is S. aureus USA300 SpsB-high. The assay can be described thus: MIC, USA300 SpsB-high. Conditions: result in words. Format: cell-based. The method, then:
as §1
A strain of USA300 Δmcr overexpressing SpsB (USA300 SpsB-high; GNE0028) was engineered by cloning SpsB under the constitutive sarA promoter into vector pMK4, resulting in SpsB expression that was ~20-fold higher than the wild-type level as determined by Western blotting. A USA300 Δmcr strain that underexpresses SpsB (USA300 SpsB-low; […]) was generated by genomic incorporation of spsB under the isopropyl-β-D-thiogalactopyranoside (IPTG)-sensitive promoter spac; without IPTG, this strain expresses SpsB at ~5% of the wild-type level as determined by Western blotting.

Bounds are passed on as bounds.

As to `CCCCc1ccc(-c2ccc(C(=O)N[C@@H](CCCCN)C(=O)N(C)[C@@H]3C(=O)N[C@@H](C)C(=O)N[C@H](C(=O)NCC(C)C(=O)O)Cc4ccc(O)c(c4)-c4cc3ccc4O)cc2)cc1` (stereo partly shown) [Compound 103], the “MIC of compound 103 (fold increase versus MIC for USA300 WT)” value in assay [1] (GNE0220) is recorded as 2.0 fold; in assay [2], 4 fold; in [3] it was 4 fold; in assay [4], greater than 32 fold; in assay [5], 8 fold; in assay [7], 1.0 fold. The “MIC of compound 103 (fold increase versus MIC for USA300 WT)” value in [8] was 4 fold; in assay [9] (GNE0162), greater than 32 fold. The resistance phenotype result in [1] (GNE0220, deletion of all 3 ABC transporter genes, result in words) is given as “reversed the resistant phenotype”; in assay [9] (GNE0162, overexpression of 3 ABC transporter genes, result in words) it was “induced resistance”. The “frequency of spontaneous resistance” value in assay [6] is 2 × 10^−9; in the assay on S. aureus USA300, 3 × 10^−7. Also, the “MIC for an SpsB-overexpressing strain” value in assay [10] is given as “increased MIC”.
